Measurements as given in US4645774A, “Aminoethoxybenzylalcohol derivatives, process for their preparation and pharmaceutical compositions containing them” (Richter Gedeon Vegyeszeti Gyar Rt, priority 1982, dated 1987).

Tests used:
hexobarbital oxidase = experiment: in vivo measurement of hexobarbital oxidase activity (hexobarbital narcosis period); parameters: species or system rat (female Hann.-Wistar); conditions: 40 mg./kg. oral single dose, n=10, mean ± S.E.; for Narcosis period in % of the control, 1 hour: hexobarbital sodium 60 mg./kg. i.v. 1 hour after; for Narcosis period in % of the control, 24 hours: hexobarbital sodium 60 mg./kg. i.v. 24 hours after
Experimental: The enzyme-inducing potency of the new compounds according to the invention was determined by several methods. One of these methods was the in vivo measurement of hexobarbital oxidase activity.
To determine the change of hexobarbital oxidase activity female Hann.-Wistar rats, each weighing 50 to 60 g. were treated orally with a single 40 mg./kg. dose of the active agent. One and 24 hours after the administration of the active agent, respectively, the animals were narcotized with a 60 mg./kg. i.v. dose of hexobarbital sodium, and the time elapsed until complete wakening from ceasing of the righting reflex was measured (Noordhoex J.: Eur. J. Pharmacol, 3, 242, 1968). As a reference compound phenobarbital was used. The data were recorded, and the mean values, the standard errors, as well as the percentage increase with respect to the control were calculated for each group. Abbreviations:
S.E.=standard error of the mean value,
The control group was treated with a placebo. [formula] A=α-ethyl-α-(3-trifluoromethylphenyl)-4-[2-(piperidin-l-yl)-eth oxy]-benzylalcohol;

acute toxicity = experiment: acute toxicity; parameters: species or system rat (H-Wistar, both sexes); conditions: rat, in vivo, po; for mortality at 336 h: 500 mg./kg. p.o. single dose, 14 days observation, n=10, read-out: Perished animals
Experimental: The acute toxicity of the compounds of the formula (I) was determined on H-Wistar rats of both sexes, each weighing 160 to 180 g. The compounds were administered in a single 500 mg./kg. dose, orally.

liver = experiment: Relative weight of liver after treatment; assay type: in vivo, rat (female H. Wistar); conditions: 40 mg./kg. single oral dose, 24 hours; control 4.3 ± 0.17; ± S.E.
Experimental: (§1) The enzyme inducing activity of the compounds of the formula (I) was further tested by determining the activity of the polysubstrate monooxygenase enzyme system of the liver after treatment with a placebo and the compounds according to the invention, respectively. Female H. Wistar rats each weighing 50 to 60 g. were administered a single 40 mg./kg. dose of the test compounds, orally. 24 hours after treatment the animals were decapitated and the livers were eliminated. […] The cytochrome P-450 concentration was determined from the carbon monoxide differential spectrum of a reduced microsomal suspension (Omura T. et al.: J. Biol. Chem. 239, 2370 (1964)), the quantity of cytochrome b-5 was determined from a NADH differential spectrum (Raw J. et al.: J. Biol. Chem. 234, 1867 (1959)). The activity of NADPH: ferricytochrome C (P-450) reductase (E.C. 1.6.2.4) was measured according to Williams C. […] The activity of aniline hydroxylase was determined according to Chhabra R. S. et al.: Toxicol. […] Pharmacol., 22, 50 (1972) by measuring the velocity of p-aminophenol formation, while the […] activity was determined on the basis of the quantity of formaldehyde formed, following the method of Gourlay G. K. et al.: Biochem. Pharmacol., 27, 965 (1978). […]

Microsomal protein = Microsomal protein of the liver after treatment; assay type: in vivo, rat (female H. Wistar); conditions: 40 mg./kg. single oral dose, 24 hours; control 29.3 ± 1.01; ± S.E.
Experimental: as §1

Cytochrome b-5 = Cytochrome b-5 quantity from NADH differential spectrum; assay type: in vivo, rat (female H. Wistar); conditions: 40 mg./kg. single oral dose, 24 hours; control 8.6 ± 0.43; ± S.E.
Experimental: as §1

Cytochrome P-450 = Cytochrome P-450 concentration from carbon monoxide differential spectrum; assay type: in vivo, rat (female H. Wistar); conditions: 40 mg./kg. single oral dose, 24 hours; control 12.8 ± 0.63; ± S.E.
Experimental: as §1

[1] = test system: NADPH: ferricytochrome C (P-450) reductase (E.C. 1.6.2.4); experiment: activity of NADPH: ferricytochrome C (P-450) reductase; assay type: in vivo, rat (female H. Wistar); conditions: 40 mg./kg. single oral dose, 24 hours; control 4686 ± 286.2; ± S.E.
Experimental: as §1

aniline hydroxylase = experiment: activity of aniline hydroxylase (p-aminophenol formation); assay type: in vivo, rat (female H. Wistar); conditions: 40 mg./kg. single oral dose, 24 hours; control 20.3 ± 0.88; ± S.E.
Experimental: as §1

[2] = test system: aminopyridine demethylase; experiment: aminopyridine demethylase activity (formaldehyde formed); assay type: in vivo, rat (female H. Wistar); conditions: 40 mg./kg. single oral dose, 24 hours; control 254.8 ± 7.47; ± S.E.
Experimental: as §1

mice and rats = assay type: in vivo; conditions: orally, even in a dose of 40 mg./kg.
Text: The central nervous activities of the compounds according to the invention were examined on mice and rats with the following methods: electroshock (Swinyard, E. A., Brown, W. C., Goodman, L. S.: J. Pharmacol. Exp. Ther. 106, 319 (1952)), metrazole spasm (Everett, G. M., Richards, R. K.: J. Pharmacol. Exp. Ther. 81, 402 (1944)), thiosemicarbazide spasm ( Da Venzo, J. P., Greig, M. E., Cormin, M. A.: Amer. J. Physiol. 201, 833 (1961)), strychnine spasm (Kerley, T. L., Richards, A. G., Begley, R. W., Abreu, B. B., Wesver, L. C.: J. Pharmacol. Exp. Ther. 132, 360 (1961)), nicotine spasm (Stone, C. A., Mecklenburg, K. L., Torhans, M. L.: Arch. Int. Pharmacodyn. 117, 419 (1958)), rotarod test (Kinnard, W. C., Carr, C. J.: J. Pharmacol. Expt. Ther. 121, 354 (1957)), physostigmine lethality preventing effect (Nose, T., Kojima, M.: Europ. J. Pharmacol. 10, 83 (1970)), yohimbine potentiation effect (Quinton, R. M.: Brit. J. Pharmacol. 21, 51 (1963)), and analgesic activity (Bianchi, G., Francheschini, J.: Brit. J. Pharm. Chemother. 9, 280 (1954)).
As a reference substance, phenobarbital was used. […].

SMILES	Narcosis period in % of the control, 1 hour (hexobarbital oxidase) [%]	Narcosis period in % of the control, 24 hours (hexobarbital oxidase) [%]	mortality at 336 h (acute toxicity) [%]	Relative weight of liver (g./100 g. of body weight), % of control (liver) [%]	Microsomal protein (mg./g. of liver), % of control (Microsomal protein) [%]	Cytochrome b-5 (nmoles/g. of liver), % of control (Cytochrome b-5) [%]	Cytochrome P-450 (nmoles/g. of liver), % of control (Cytochrome P-450) [%]	c(P-450)reductase (nmoles/g. of liver/min.), % of control [1] [%]	Aniline hydroxylase (nmoles/g. of liver/min.), % of control (aniline hydroxylase) [%]	Aminopyridine demethylase (nmoles/g./min.), % of control [2] [%]	LD50 (acute toxicity; footnote x of Table 3) [mg/kg]	central nervous activities (mice and rats)
CCC(O)(c1ccc(OCCN2CCCCC2)cc1)c1cccc(C(F)(F)F)c1 (stereo not drawn) [A, α-Ethyl-α-(3-trifluoromethylphenyl)-4-[2-(piperidin-1-yl)-ethoxy]-benzylalcohol]	177 ± 5.0	49 ± 0.7	0									
CCC(O)(c1ccc(OCCN(C)C)cc1)c1cccc(C(F)(F)F)c1 (stereo not drawn) [B, α-ethyl-α-(3-trifluoromethylphenyl)-4-[2-(dimethylamino)-ethoxy]-benzylalcohol]	180 ± 10.0	49 ± 3.3	0									
CCC(O)(c1ccc(OCCN2CCCC2)cc1)c1ccccc1OC (stereo not drawn) [C, α-Ethyl-α-(2-methoxyphenyl)-4-[2-(pyrrolidin-1-yl)-ethoxy]-benzylalcohol]	113 ± 12.0	57 ± 7.8	0									
CCC(O)(c1ccc(F)cc1)c1ccc(OCCN2CCCCC2)cc1 (stereo not drawn) [D, α-Ethyl-α-(4-fluorophenyl)-4-[2-(piperidin-1-yl)-ethoxy]-benzylalcohol]	120 ± 4.2	53 ± 3.7	0	122 ± 4.9	111 ± 4.2	116 ± 4.8	163 ± 8.7	178 ± 16.2	131 ± 5.9	123 ± 7.8		
CCC1(c2ccccc2)C(=O)NC(=O)NC1=O [phenobarbital, reference compound]	250 ± 15.8	60 ± 7.3									245	strong anticonvulsive muscle-coordinating and sedative effects
